Reference: patent publication US20210147367A1, “CRYSTALLINE FORMS OF A MAGL INHIBITOR” (Lundbeck La Jolla Research Center, Inc., priority 2019, published 2021)
Entries after “also recorded” stand apart in the source; their conditions may differ. Read-outs that look alike come from different tables or passages of the source.

Legend:
[1] = Differential scanning calorimetry (DSC) with XRPD after heating: relative stability of crystalline forms; format: physicochemical; details: for thermodynamic stability relative to other crystalline forms: DSC analysis; for solid form after heating (XRPD): heated to 130° C., above the exotherm, prior to melting
Description: X-Ray powder diffractograms were measured on a PANalytical X'Pert PRO X-Ray Diffractometer using CuKα1 radiation (λ=1.5406 Å). The samples were measured in reflection mode in the 2θ-range 3-40 using an X'celerator detector.
Differential Scanning Calorimetry was measured using a TA-Instruments Discovery-DSC calibrated at 5°/min to give the melting point as onset value. About 2 mg of sample is heated 5°/min under nitrogen flow in a closed pan with a pinhole in the lid.

[2] = Slurry experiments in different solvents; format: physicochemical
[3] = Dynamic vapor sorption (DVS); format: physicochemical
Description: Dynamic vapour sorption (DVS) was measured using SMS DVS advantage 01 changing the relative humidity from 0% RH to 95% RH in steps of 10% RH (5% between 90 and 95% RH). 2 cycles were performed using 4 mg, starting at 30% RH. The weight changes during the sorption/desorption cycles were plotted, allowing for the hygroscopic nature of the sample to be determined.

[4] = molecular target: T1, MAGL (Homo sapiens, UniProt Q99685); assay: In vitro competitive activity-based protein profiling; format: biochemical
T1 construct: human prefrontal cortex or cell membrane fractions for human assays; from tissue
T1 sequence (Q99685 1-303): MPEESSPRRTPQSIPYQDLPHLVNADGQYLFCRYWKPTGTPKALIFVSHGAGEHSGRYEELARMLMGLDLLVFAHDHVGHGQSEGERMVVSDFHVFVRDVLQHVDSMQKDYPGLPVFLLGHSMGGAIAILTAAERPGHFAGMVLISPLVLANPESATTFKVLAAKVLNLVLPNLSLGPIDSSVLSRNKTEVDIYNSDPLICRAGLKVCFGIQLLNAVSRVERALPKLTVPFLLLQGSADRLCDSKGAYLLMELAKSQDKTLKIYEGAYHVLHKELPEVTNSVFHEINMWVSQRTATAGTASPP
Description: (§1) Proteomes (mouse brain membrane fraction or cell lysates for mouse assays; human prefrontal cortex or cell membrane fractions for human assays) (50 μL, 1.0 mg/mL total protein concentration) were preincubated with varying concentrations of inhibitors at 37° C. After 30 min, FP-Rh or HT-01 (1.0 μL, 50 μM in DMSO) was added and the mixture was incubated for another 30 min at 37° C. Reactions were quenched with SDS loading buffer (15 μL-4×) and run on SDS-PAGE. Following gel imaging, serine hydrolase activity was determined by measuring fluorescent intensity of gel bands corresponding to MAGL using ImageJ 1.43u software.

[5] = molecular target: T2, MAGL (Mus musculus, UniProt O35678); assay: MAGL inhibition in mouse brain proteomes from inhibitor treated mice; format: in vivo; details: 5 mg/kg oral gavage, brain proteome 4 h after administration, C57Bl/6J mice, read-out: MAGL % inh. 5 mg/kg (mouse)
T2 construct: from tissue; host or cells: brain of wild-type C57Bl/6J mice
T2 sequence (O35678 1-303): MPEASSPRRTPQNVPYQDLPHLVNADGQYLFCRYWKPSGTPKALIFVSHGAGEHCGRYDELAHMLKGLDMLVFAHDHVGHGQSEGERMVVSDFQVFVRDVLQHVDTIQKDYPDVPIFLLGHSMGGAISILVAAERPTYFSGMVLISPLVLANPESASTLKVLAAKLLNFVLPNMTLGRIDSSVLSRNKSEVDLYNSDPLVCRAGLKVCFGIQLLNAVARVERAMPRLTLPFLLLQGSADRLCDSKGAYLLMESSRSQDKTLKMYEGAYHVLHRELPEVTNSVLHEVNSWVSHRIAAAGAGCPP
Description: as §1
Inhibitors were administered to wild-type C57Bl/6J by oral gavage in a vehicle of polyethylene glycol. Each animal was sacrificed 4 h following administration and brain proteomes were prepared and analyzed according to previously established methods (See Niphakis et al., ACS Chem. Neurosci. 2011 and Long et al. Nat. Chem. Biol. 2009).

CC(C)(Oc1cc(C(F)(F)F)ccc1CN1CCN(C(=O)OC(C(F)(F)F)C(F)(F)F)CC1)C(=O)O [Compound (I) form D, 2-(2-((4-(((1,1,1,3,3,3-hexafluoropropan-2-yl)oxy)carbonyl)piperazin-1-yl)methyl)-5-(trifluoromethyl)phenoxy)-2-methylpropanoic acid form D]
thermodynamic stability relative to other crystalline forms [1]: more thermodynamically stable at higher temperatures | thermodynamic stability relative to other crystalline forms ([1]; listed as Compound (I) Form D): more thermodynamically stable at high temperature but less stable at low temperature compared to Compound (I) Form A | temperature above which Compound (I) Form D is the more stable form ([2]; compared with Form A, inferred from slurry experiments): ≥ 60 °C

CC(C)(Oc1cc(C(F)(F)F)ccc1CN1CCN(C(=O)OC(C(F)(F)F)C(F)(F)F)CC1)C(=O)O.O [Compound (I) hydrate, 2-(2-((4-(((1,1,1,3,3,3-hexafluoropropan-2-yl)oxy)carbonyl)piperazin-1-yl)methyl)-5-(trifluoromethyl)phenoxy)-2-methylpropanoic acid hydrate]
behaviour in sorption/desorption cycles ([3]; 0% RH to 95% RH, 2 cycles): dehydration of the hydrate occurs at low relative humidity | solid state after DVS measurement ([3]; after 2 cycles 0% RH to 95% RH): turned amorphous

CC(C)(Oc1cc(C(F)(F)F)ccc1CN1CCN(C(=O)OC(C(F)(F)F)C(F)(F)F)CC1)C(=O)O [Compound (I) form C, 2-(2-((4-(((1,1,1,3,3,3-hexafluoropropan-2-yl)oxy)carbonyl)piperazin-1-yl)methyl)-5-(trifluoromethyl)phenoxy)-2-methylpropanoic acid form C]
solid form after heating (XRPD) ([1]; listed as Compound (I) Form C): transformed into Form A

CC(C)(Oc1cc(C(F)(F)F)ccc1CN1CCN(C(=O)OC(C(F)(F)F)C(F)(F)F)CC1)C(=O)O [Compound (I) form E, 2-(2-((4-(((1,1,1,3,3,3-hexafluoropropan-2-yl)oxy)carbonyl)piperazin-1-yl)methyl)-5-(trifluoromethyl)phenoxy)-2-methylpropanoic acid form E]
solid form after heating (XRPD) ([1]; listed as Form E): transformed into Compound (I) Form A

CC(C)(Oc1cc(C(F)(F)F)ccc1CN1CCN(C(=O)OC(C(F)(F)F)C(F)(F)F)CC1)C(=O)O [Compound (I), 2-(2-((4-(((1,1,1,3,3,3-hexafluoropropan-2-yl)oxy)carbonyl)piperazin-1-yl)methyl)-5-(trifluoromethyl)phenoxy)-2-methylpropanoic acid]
inhibition at 1 µM ([4]; 1 μM, human proteome, read-out: MAGL % inh. 1 μM (human)): ≥ 75% | IC50 ([4]; human proteome, read-out: MAGL IC50 (human)): ≤ 50 nM | IC50 ([4]; protocol of example 14, read-out: MAGL IC50): ≤ 50 nM | inhibition at 5 mg/kg [5]: ≥ 75%

CC(C)(Oc1cc(C(F)(F)F)ccc1CN1CCN(C(=O)OC(C(F)(F)F)C(F)(F)F)CC1)C(=O)O [Compound (I) form A, 2-(2-((4-(((1,1,1,3,3,3-hexafluoropropan-2-yl)oxy)carbonyl)piperazin-1-yl)methyl)-5-(trifluoromethyl)phenoxy)-2-methylpropanoic acid form A]
thermodynamic stability relative to other crystalline forms [1]: the most stable free form up to 60 °C | thermodynamic stability relative to other crystalline forms ([1]; listed as Compound (I) Form A): thermodynamically more stable than Compound (I) Form C; also recorded: thermodynamically more stable than Compound (I) Form E | transformation of solid form in slurry ([2]; different solvents, temperatures up to 60° C.): did not lead to transformation into Compound (I) Form D
